Experimental data published in patent publication EP4722207A1, “OXOISOINDOLINYL-SUBSTITUTED TETRAHYDROPYRIMIDINEDIONE DERIVATIVE AND USE THEREOF” (Gluetacs Therapeutics (Shanghai) Co., Ltd., priority 2023, dated 2024).

How the values were obtained:
Assay type in all cases: cell-based
Details in all cases: compounds at 50 nM and 500 nM, 24 hours
IKZF3 = molecular target: T1, IKZF3 (Homo sapiens, UniProt Q96SW2+Q9UKT9); experiment: Western-blot assay, substrate protein degradation in hPBMCs: IKZF3
T1 construct: effects of the compounds of the present disclosure on the expression of target proteins in cells; endogenous in cells; host or cells: human PBMCs (hPBMCs)
T1 sequence (Q9UKT9 whole entry): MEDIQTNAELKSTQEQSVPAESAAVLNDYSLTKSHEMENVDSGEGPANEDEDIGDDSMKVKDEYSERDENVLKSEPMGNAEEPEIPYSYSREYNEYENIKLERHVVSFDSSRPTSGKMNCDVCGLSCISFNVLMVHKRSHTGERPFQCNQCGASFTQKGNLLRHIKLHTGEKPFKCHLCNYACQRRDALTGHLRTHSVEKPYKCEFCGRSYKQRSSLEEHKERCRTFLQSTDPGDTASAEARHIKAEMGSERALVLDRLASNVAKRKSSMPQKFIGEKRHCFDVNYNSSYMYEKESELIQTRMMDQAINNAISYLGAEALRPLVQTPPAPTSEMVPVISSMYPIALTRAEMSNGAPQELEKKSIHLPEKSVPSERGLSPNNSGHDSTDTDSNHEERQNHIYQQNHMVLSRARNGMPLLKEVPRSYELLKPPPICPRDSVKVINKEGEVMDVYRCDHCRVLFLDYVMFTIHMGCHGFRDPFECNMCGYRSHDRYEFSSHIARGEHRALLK
T1 sequence (Q96SW2 whole entry): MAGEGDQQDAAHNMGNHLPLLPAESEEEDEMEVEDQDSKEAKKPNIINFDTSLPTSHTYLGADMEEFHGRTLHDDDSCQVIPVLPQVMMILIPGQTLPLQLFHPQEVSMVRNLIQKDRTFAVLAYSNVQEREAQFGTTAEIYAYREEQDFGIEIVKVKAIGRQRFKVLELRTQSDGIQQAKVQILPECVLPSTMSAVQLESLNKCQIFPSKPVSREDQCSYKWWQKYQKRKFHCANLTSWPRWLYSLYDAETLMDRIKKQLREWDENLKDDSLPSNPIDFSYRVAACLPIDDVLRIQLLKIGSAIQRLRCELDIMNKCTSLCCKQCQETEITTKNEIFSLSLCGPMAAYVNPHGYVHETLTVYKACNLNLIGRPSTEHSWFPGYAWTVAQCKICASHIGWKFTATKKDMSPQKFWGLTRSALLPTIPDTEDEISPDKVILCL
T1 sequence (Q16531 whole entry partner): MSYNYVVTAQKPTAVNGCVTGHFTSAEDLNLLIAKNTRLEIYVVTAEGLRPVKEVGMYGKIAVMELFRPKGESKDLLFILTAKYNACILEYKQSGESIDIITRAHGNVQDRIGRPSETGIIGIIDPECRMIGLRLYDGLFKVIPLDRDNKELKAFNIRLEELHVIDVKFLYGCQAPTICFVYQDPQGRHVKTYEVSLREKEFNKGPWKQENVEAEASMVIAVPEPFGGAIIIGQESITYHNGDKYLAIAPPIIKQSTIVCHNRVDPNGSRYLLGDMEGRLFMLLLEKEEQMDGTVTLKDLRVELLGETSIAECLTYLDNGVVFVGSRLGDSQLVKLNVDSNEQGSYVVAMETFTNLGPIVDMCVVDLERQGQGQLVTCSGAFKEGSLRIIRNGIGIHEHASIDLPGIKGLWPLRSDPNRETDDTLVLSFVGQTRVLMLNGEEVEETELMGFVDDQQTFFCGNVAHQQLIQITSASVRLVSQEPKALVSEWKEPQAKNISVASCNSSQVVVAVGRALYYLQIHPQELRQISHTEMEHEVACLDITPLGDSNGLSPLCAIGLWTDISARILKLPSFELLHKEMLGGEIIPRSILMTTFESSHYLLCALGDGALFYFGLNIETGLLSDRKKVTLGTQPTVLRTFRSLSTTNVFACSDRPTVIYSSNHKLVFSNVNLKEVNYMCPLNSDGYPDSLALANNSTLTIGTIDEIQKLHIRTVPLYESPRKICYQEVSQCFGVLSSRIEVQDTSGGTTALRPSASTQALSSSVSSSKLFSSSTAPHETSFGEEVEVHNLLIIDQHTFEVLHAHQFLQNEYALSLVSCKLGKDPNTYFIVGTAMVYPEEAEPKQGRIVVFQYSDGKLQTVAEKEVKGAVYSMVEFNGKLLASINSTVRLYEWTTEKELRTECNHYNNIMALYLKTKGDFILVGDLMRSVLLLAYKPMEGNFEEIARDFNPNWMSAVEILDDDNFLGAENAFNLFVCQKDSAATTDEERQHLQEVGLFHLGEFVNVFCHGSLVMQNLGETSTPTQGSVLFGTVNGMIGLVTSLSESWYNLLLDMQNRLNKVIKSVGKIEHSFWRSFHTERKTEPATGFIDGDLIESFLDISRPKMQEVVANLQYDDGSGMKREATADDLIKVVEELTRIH

WEE1 = molecular target: T2, WEE1 (Homo sapiens, UniProt P30291+Q96SW2); experiment: Western-blot assay, substrate protein degradation in hPBMCs: WEE1
T2 construct: effects of the compounds of the present disclosure on the expression of target proteins in cells; endogenous in cells; host or cells: human PBMCs (hPBMCs)
T2 sequence (P30291 whole entry): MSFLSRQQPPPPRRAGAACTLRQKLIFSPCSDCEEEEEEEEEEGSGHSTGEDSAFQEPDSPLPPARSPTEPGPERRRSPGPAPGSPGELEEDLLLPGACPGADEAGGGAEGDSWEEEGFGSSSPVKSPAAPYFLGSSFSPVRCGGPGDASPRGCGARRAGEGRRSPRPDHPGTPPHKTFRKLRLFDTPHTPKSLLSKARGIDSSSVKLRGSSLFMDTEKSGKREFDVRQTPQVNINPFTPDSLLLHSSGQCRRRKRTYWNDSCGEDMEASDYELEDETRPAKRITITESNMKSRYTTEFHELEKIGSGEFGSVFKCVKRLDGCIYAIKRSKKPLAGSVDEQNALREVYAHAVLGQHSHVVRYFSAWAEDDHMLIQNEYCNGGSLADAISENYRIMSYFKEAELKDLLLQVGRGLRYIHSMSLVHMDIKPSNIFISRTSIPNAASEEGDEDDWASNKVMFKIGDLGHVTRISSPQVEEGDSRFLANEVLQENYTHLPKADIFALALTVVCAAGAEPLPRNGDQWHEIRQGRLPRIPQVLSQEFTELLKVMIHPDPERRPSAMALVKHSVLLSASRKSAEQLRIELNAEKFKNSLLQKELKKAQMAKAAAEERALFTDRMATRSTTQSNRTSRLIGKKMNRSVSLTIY
T2 sequence (Q96SW2 whole entry): as the sequence (Q96SW2 whole entry) above
T2 sequence (Q16531 whole entry partner): as the sequence (Q16531 whole entry partner) above

CK1α = molecular target: T3, CK1α (Homo sapiens, UniProt P48729+Q96SW2); experiment: Western-blot assay, substrate protein degradation in hPBMCs: CK1α
T3 construct: effects of the compounds of the present disclosure on the expression of target proteins in cells; endogenous in cells; host or cells: human PBMCs (hPBMCs)

GSPT1 = molecular target: T4, GSPT1 (Homo sapiens, UniProt P15170+Q96SW2); experiment: Western-blot assay, substrate protein degradation in hPBMCs: GSPT1
T4 construct: effects of the compounds of the present disclosure on the expression of target proteins in cells; endogenous in cells; host or cells: human PBMCs (hPBMCs)
T4 sequence (P15170 whole entry): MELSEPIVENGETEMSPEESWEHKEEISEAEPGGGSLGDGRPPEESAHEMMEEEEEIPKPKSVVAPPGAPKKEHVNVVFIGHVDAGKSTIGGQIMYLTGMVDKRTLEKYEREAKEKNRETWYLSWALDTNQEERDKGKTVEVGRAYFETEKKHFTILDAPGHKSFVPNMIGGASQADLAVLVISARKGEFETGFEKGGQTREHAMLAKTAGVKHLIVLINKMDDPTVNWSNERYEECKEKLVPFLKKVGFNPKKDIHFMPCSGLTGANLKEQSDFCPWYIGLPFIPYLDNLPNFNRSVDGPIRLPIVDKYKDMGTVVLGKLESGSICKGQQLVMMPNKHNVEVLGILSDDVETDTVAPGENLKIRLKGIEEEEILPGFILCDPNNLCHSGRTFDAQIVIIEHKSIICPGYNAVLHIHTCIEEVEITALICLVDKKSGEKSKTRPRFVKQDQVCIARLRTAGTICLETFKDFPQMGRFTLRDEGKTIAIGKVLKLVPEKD
T4 sequence (Q96SW2 whole entry): as the sequence (Q96SW2 whole entry) above
T4 sequence (Q16531 whole entry partner): as the sequence (Q16531 whole entry partner) above

IKZF1 = molecular target: T5, IKZF1 (Homo sapiens, UniProt Q13422+Q96SW2); experiment: Western-blot assay, substrate protein degradation in hPBMCs: IKZF1
T5 construct: effects of the compounds of the present disclosure on the expression of target proteins in cells; endogenous in cells; host or cells: human PBMCs (hPBMCs)
T5 sequence (Q13422 whole entry): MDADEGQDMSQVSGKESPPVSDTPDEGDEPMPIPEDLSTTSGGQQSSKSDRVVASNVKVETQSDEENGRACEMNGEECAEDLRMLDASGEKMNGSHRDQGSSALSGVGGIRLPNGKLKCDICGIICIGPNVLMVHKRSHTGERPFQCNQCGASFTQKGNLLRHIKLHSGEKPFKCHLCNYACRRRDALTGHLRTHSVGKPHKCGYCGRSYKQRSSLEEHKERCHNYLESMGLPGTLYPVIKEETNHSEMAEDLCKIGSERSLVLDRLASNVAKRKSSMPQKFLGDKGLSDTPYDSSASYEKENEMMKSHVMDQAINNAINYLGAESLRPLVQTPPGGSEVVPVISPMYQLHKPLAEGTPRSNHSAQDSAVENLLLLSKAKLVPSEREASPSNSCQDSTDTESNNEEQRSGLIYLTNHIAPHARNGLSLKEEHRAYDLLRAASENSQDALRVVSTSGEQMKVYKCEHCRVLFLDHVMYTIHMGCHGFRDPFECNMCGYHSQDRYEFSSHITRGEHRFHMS
T5 sequence (Q96SW2 whole entry): as the sequence (Q96SW2 whole entry) above
T5 sequence (Q16531 whole entry partner): as the sequence (Q16531 whole entry partner) above

IKZF2 = molecular target: T6, IKZF2 (Homo sapiens, UniProt Q96SW2+Q9UKS7); experiment: Western-blot assay, substrate protein degradation in hPBMCs: IKZF2
T6 construct: effects of the compounds of the present disclosure on the expression of target proteins in cells; endogenous in cells; host or cells: human PBMCs (hPBMCs)
T6 sequence (Q9UKS7 whole entry): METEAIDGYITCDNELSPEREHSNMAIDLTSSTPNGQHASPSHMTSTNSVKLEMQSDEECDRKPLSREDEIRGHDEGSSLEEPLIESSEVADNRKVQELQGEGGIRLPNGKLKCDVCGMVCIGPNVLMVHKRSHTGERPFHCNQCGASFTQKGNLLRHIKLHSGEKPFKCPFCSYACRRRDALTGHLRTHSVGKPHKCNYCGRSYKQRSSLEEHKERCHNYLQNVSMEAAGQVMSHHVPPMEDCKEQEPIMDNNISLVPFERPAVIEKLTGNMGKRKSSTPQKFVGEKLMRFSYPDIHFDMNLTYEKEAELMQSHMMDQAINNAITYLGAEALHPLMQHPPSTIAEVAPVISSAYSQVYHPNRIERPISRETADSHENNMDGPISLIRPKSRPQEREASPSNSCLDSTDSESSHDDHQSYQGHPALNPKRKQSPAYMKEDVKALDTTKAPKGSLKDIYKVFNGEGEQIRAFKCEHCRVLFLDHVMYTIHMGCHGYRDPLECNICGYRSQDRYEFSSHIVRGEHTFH
T6 sequence (Q96SW2 whole entry): as the sequence (Q96SW2 whole entry) above
T6 sequence (Q16531 whole entry partner): as the sequence (Q16531 whole entry partner) above

SMILES	IKZF3 substrate protein remaining % (IKZF3)	WEE1 substrate protein remaining % (WEE1)	CK1α substrate protein remaining % (CK1α)	GSPT1 substrate protein remaining % (GSPT1)	IKZF1 substrate protein remaining % (IKZF1)	IKZF2 substrate protein remaining % (IKZF2)
O=C1CCN(N2C(=O)c3ccc(CN4CCN(c5c(Cl)ccnc5Cl)CC4)cc3C2=O)C(=O)N1 [GT-06973, 5-((4-(2,4-dichloropyridin-3-yl)piperazin-1-yl)methyl)-2-(2,4-dioxotetrahydropyrimidin-1(2H)-yl)isoindoline-1,3-dione]	A ("A" is defined as 0% ≤ substrate protein remaining % ≤ 80%)	A ("A" is defined as 0% ≤ substrate protein remaining % ≤ 80%)	B ("B" is defined as 80%< substrate protein remaining %≤ 100%)	B ("B" is defined as 80%< substrate protein remaining %≤ 100%)	A ("A" is defined as 0% ≤ substrate protein remaining % ≤ 80%)	B ("B" is defined as 80%< substrate protein remaining %≤ 100%)
O=C1CCN(N2Cc3cc(CN4CCN(c5c(Cl)ccnc5Cl)CC4)ccc3C2=O)C(=O)N1 [GT-06974, 1-(5-((4-(2,4-dichloropyridin-3-yl)piperazin-1-yl)methyl)-1-oxoisoindolin-2-yl)dihydropyrimidine-2,4(1H,3H)-dione]	A ("A" is defined as 0% ≤ substrate protein remaining % ≤ 80%)	A ("A" is defined as 0% ≤ substrate protein remaining % ≤ 80%)	B ("B" is defined as 80%< substrate protein remaining %≤ 100%)	B ("B" is defined as 80%< substrate protein remaining %≤ 100%)	A ("A" is defined as 0% ≤ substrate protein remaining % ≤ 80%)	B ("B" is defined as 80%< substrate protein remaining %≤ 100%)
O=C1CCN(N2C(=O)c3ccc(CN4CCN(c5ccc(Cl)nc5)CC4)cc3C2=O)C(=O)N1 [GT-07027, 5-((4-(6-chloropyridin-3-yl)piperazin-1-yl)methyl)-2-(2,4-dioxotetrahydropyrimidin-1(2H)-yl)isoindoline-1,3-dione]	B ("B" is defined as 80%< substrate protein remaining %≤ 100%)	A ("A" is defined as 0% ≤ substrate protein remaining % ≤ 80%)	B ("B" is defined as 80%< substrate protein remaining %≤ 100%)	A ("A" is defined as 0% ≤ substrate protein remaining % ≤ 80%)	B ("B" is defined as 80%< substrate protein remaining %≤ 100%)	B ("B" is defined as 80%< substrate protein remaining %≤ 100%)
O=C1CCN(N2Cc3cc(CN4CCN(c5ncnc(Cl)c5Cl)CC4)ccc3C2=O)C(=O)N1 [GT-07028, 1-(5-((4-(5,6-dichloropyrimidin-4-yl)piperazin-1-yl)methyl)-1-oxoisoindolin-2-yl)dihydropyrimidine-2,4(1H,3H)-dione]	B ("B" is defined as 80%< substrate protein remaining %≤ 100%)	A ("A" is defined as 0% ≤ substrate protein remaining % ≤ 80%)	B ("B" is defined as 80%< substrate protein remaining %≤ 100%)	A ("A" is defined as 0% ≤ substrate protein remaining % ≤ 80%)	B ("B" is defined as 80%< substrate protein remaining %≤ 100%)	B ("B" is defined as 80%< substrate protein remaining %≤ 100%)
O=C1CCN(N2Cc3cc(CN4CCN(c5cnnc(Cl)c5Cl)CC4)ccc3C2=O)C(=O)N1 [GT-07029, 1-(5-((4-(5,6-dichloropyridazin-4-yl)piperazin-1-yl)methyl)-1-oxoisoindolin-2-yl)dihydropyrimidine-2,4(1H,3H)-dione]	B ("B" is defined as 80%< substrate protein remaining %≤ 100%)	A ("A" is defined as 0% ≤ substrate protein remaining % ≤ 80%)	B ("B" is defined as 80%< substrate protein remaining %≤ 100%)	A ("A" is defined as 0% ≤ substrate protein remaining % ≤ 80%)	B ("B" is defined as 80%< substrate protein remaining %≤ 100%)	A ("A" is defined as 0% ≤ substrate protein remaining % ≤ 80%)
O=C1CCN(N2Cc3cc(CN4CCN(c5cc(Cl)nnc5Cl)CC4)ccc3C2=O)C(=O)N1 [GT-07030, 1-(5-((4-(3,6-dichloropyridazin-4-yl)piperazin-1-yl)methyl)-1-oxoisoindolin-2-yl)dihydropyrimidine-2,4(1H,3H)-dione]	B ("B" is defined as 80%< substrate protein remaining %≤ 100%)	B ("B" is defined as 80%< substrate protein remaining %≤ 100%)	B ("B" is defined as 80%< substrate protein remaining %≤ 100%)	B ("B" is defined as 80%< substrate protein remaining %≤ 100%)	B ("B" is defined as 80%< substrate protein remaining %≤ 100%)	A ("A" is defined as 0% ≤ substrate protein remaining % ≤ 80%)
O=C1CCN(N2Cc3cc(CN4CCN(c5ncncn5)CC4)ccc3C2=O)C(=O)N1 [GT-07031, 1-(5-((4-(1,3,5-triazin-2-yl)piperazin-1-yl)methyl)-1-oxoisoindolin-2-yl)dihydropyrimidine-2,4(1H,3H)-dione]	A ("A" is defined as 0% ≤ substrate protein remaining % ≤ 80%)	B ("B" is defined as 80%< substrate protein remaining %≤ 100%)	A ("A" is defined as 0% ≤ substrate protein remaining % ≤ 80%)	A ("A" is defined as 0% ≤ substrate protein remaining % ≤ 80%)	A ("A" is defined as 0% ≤ substrate protein remaining % ≤ 80%)	B ("B" is defined as 80%< substrate protein remaining %≤ 100%)
O=C1CCN(N2Cc3cc(CN4CCN(c5c(Cl)cncc5Cl)CC4)ccc3C2=O)C(=O)N1 [GT-07032, 1-(5-((4-(3,5-dichloropyridin-4-yl)piperazin-1-yl)methyl)-1-oxoisoindolin-2-yl)dihydropyrimidine-2,4(1H,3H)-dione]	B ("B" is defined as 80%< substrate protein remaining %≤ 100%)	B ("B" is defined as 80%< substrate protein remaining %≤ 100%)	B ("B" is defined as 80%< substrate protein remaining %≤ 100%)	A ("A" is defined as 0% ≤ substrate protein remaining % ≤ 80%)	B ("B" is defined as 80%< substrate protein remaining %≤ 100%)	B ("B" is defined as 80%< substrate protein remaining %≤ 100%)
Cc1cc(N2CCN(Cc3ccc4c(c3)CN(N3CCC(=O)NC3=O)C4=O)CC2)cc(C)n1 [GT-07033, 1-(5-((4-(2,6-dimethylpyridin-4-yl)piperazin-1-yl)methyl)-1-oxoisoindolin-2-yl)dihydropyrimidine-2,4(1H,3H)-dione]	B ("B" is defined as 80%< substrate protein remaining %≤ 100%)	B ("B" is defined as 80%< substrate protein remaining %≤ 100%)	B ("B" is defined as 80%< substrate protein remaining %≤ 100%)	A ("A" is defined as 0% ≤ substrate protein remaining % ≤ 80%)	B ("B" is defined as 80%< substrate protein remaining %≤ 100%)	B ("B" is defined as 80%< substrate protein remaining %≤ 100%)
O=C1CCN(N2C(=O)c3ccc(CN4CCN(c5ncnc(Cl)c5Cl)CC4)cc3C2=O)C(=O)N1 [GT-07034, 5-((4-(5,6-dichloropyrimidin-4-yl)piperazin-1-yl)methyl)-2-(2,4-dioxotetrahydropyrimidin-1(2H)-yl)isoindoline-1,3-dione]	A ("A" is defined as 0% ≤ substrate protein remaining % ≤ 80%)	A ("A" is defined as 0% ≤ substrate protein remaining % ≤ 80%)	A ("A" is defined as 0% ≤ substrate protein remaining % ≤ 80%)	A ("A" is defined as 0% ≤ substrate protein remaining % ≤ 80%)	A ("A" is defined as 0% ≤ substrate protein remaining % ≤ 80%)	A ("A" is defined as 0% ≤ substrate protein remaining % ≤ 80%)
O=C1CCN(N2C(=O)c3ccc(CN4CCN(c5cnnc(Cl)c5Cl)CC4)cc3C2=O)C(=O)N1 [GT-07035, 5-((4-(5,6-dichloropyridazin-4-yl)piperazin-1-yl)methyl)-2-(2,4-dioxotetrahydropyrimidin-1(2H)-yl)isoindoline-1,3-dione]	A ("A" is defined as 0% ≤ substrate protein remaining % ≤ 80%)	B ("B" is defined as 80%< substrate protein remaining %≤ 100%)	A ("A" is defined as 0% ≤ substrate protein remaining % ≤ 80%)	A ("A" is defined as 0% ≤ substrate protein remaining % ≤ 80%)	B ("B" is defined as 80%< substrate protein remaining %≤ 100%)	B ("B" is defined as 80%< substrate protein remaining %≤ 100%)
